Data as given in patent publication US4975418A, “Therapeutically active compositions of pseudo-peptide of glutamyl-aspartic acid” (Centre National de la Recherche Scientific (CNRS), priority 1986, dated 1990).

Test system: SWISS mouse
Test: convulsive crises induced by intraperitoneal pentylenetetrazole in the SWISS mouse
Format: in vivo
Settings: given after pentylenetetrazole about 85 mg/kg i.p.
Description: During the first stages of the preparation and development of epileptic drugs it is necessary to generate experimental convulsive crises in an animal. The experimental convulsive crises make it possible to identify anticonvulsants, the anti-epileptic properties of which will be subsequently verified.
That is the reason why convulsive crises are induced in the SWISS mouse by the intraperitoneal injection of pentylenetetrazole at a dose of about 85 mg/kg.
Pentylenetetrazole is a bulbar excitant which, at this dose, causes convulsive crises in the mouse and the rabbit in a classical fashion with several well-characterized stages.
The subsequent intraperitoneal administration of the substance of formula I according to the invention brought about a suppression of these crises under the following conditions:
The subsequent intraperitoneal administration of N-γ-D-glutamyl-D-aspartic was also carried out and brought about the suppression of crises under the following conditions: […]

[1] = dose 285 nmol/kg intraperitoneal

Row | Compound | suppression of crises, % of the animals (dose 71 nmol/kg intraperitoneal) | suppression of crises, % of the animals [1] | suppression of crises, % of the animals (dose 142.5 nmol/kg intraperitoneal) | suppression of crises, % of the animals (dose 570 nmol/kg intraperitoneal)
1 | N[C@H](CCC(=O)N[C@H](CC(=O)O)C(=O)O)C(=O)O [N-γ-D-glutamyl-D-aspartic, N-γ-D-glutamyl-D-aspartic acid] | 40% | 60% | – | –
2 | N[C@@H](CCC(=O)N[C@@H](CC(=O)O)C(=O)O)C(=O)O [formula I, N-γ-L-glutamyl-L-aspartate] | – | 50% | 50% | 70%
